# Experimental data as given in US20250152559A1, “METHODS FOR TREATING MYC-AMPLIFIED CANCER” (The Governing Council of the University of Toronto, priority 2023, published 2025).
# System: SU_MB002 cells
# Assay: Mass spectrometry-based metabolomics and lipidomics of treated cells
# Assay type: cell-based, human
# Procedure: For metabolome and lipidome profiling, ˜10^6 cells and tissues were washed with PBS prior to collection and immediately flash frozen. For metabolite extraction, 1 mL of cold acetonitrile/methanol/water (2:2:1; v:v:v) was added to the cell pellets followed by 3 cycles of freezing in liquid N2 for 1 min, followed by 15 min of thawing in a sonicating ice/water bath. This was followed by incubation at −20° C. and centrifugation at 16,000×g for 15 min at 4° C. […] to fully precipitate protein. Supernatants were transferred to another tube and dried in a vacuum concentrator. For lipid extraction, cells were resuspended in 30 μL of water, followed by three cycles of freeze/thawing and sonication. To this, 225 μL of methanol was added, followed by brief vortexing and addition of 750 μL of methyl tert-butyl ether (MTBE). Samples were incubated at room temperature for 1 hr with gentle shaking. To induce phase-separation, 188 μL of water was added, samples were vortexed for 20 s and centrifuged for 5 min at 16,000×g. The upper and lower phases were collected and transferred to another tube and dried down in a vacuum concentrator. The dry metabolome and lipidome extracts were stored at −80° C. prior to analysis by liquid chromatography-mass spectrometry (LC-MS). Metabolite extracts were reconstituted in LC-MS grade water/acetonitrile (50:50; v:v), vortexed for 1 min, sonicated for 15 min, and centrifuged at 16,000×g and 4° C. for 15 min to remove insoluble debris. The lipidome extracts were reconstituted in acetonitrile/2-propanol (50:50; v:v), vortexed for 1 min, sonicated for 15 min, and centrifuged at 16,000×g and 10° C. for 15 min to remove insoluble debris.
# The LC-MS metabolomics and lipidomics analyses of the 3 NSC and 3 MB cell lines and tissues were performed on a UPLC-MS system consisting of an Orbitrap IQ-X Tribrid coupled to a Horizon Vanquish UPLC system (Thermo Fisher Scientific). The lipidomics analysis was conducted in positive-ion mode with a spray voltage of 3.5 kV while the metabolomics analysis was conducted in negative-ion mode with a spray voltage of −2.5 kV. The following source conditions were identical in both analyses and were set as follows: Sheath gas flow rate, 50 arbitrary units; Aux. gas flow rate, 10 arbitrary units; Sweep gas flow rate, 1 arbitrary unit; Ion transfer tube temp., 300° C.; Vaporizer temp., 350° C. The following acquisition parameters were used for MS1 analysis in both methods: resolution, 120,000, AGC target, 4e5. The maximum IT was set at […] for the lipidomics analysis and 200 ms for the metabolomics analysis. Data-dependent MS/MS parameters for the lipidomics analyses: resolution, 30,000; AGC target, 7.5e4; maximum IT, Dynamic (54 ms); time between Master Scans, 0.6 s; isolation window, 1.0 m/z; NCE/stepped nce, 20, 30, 40; intensity threshold, 5e4; exclude isotopes, on; dynamic exclusion, 3.0 s. Data-dependent MS/MS parameters for the metabolomics analyses: resolution. 15,000; AGC target, 7.5e4; maximum IT, Dynamic (22 ms); time between Master Scans, 0.6 s; isolation window, 1.0 m/z; NCE/stepped nce, 20, 30, 40, 50; intensity threshold, 5e4; exclude isotopes, on; dynamic exclusion, 5.0 s. To increase the total number of MS/MS spectra in the lipidomics analysis, five runs with iterative MS/MS exclusions were performed using the AcquireX function in Xcalibur (Thermo Fisher Scientific). In the metabolomics analysis, three runs with iterative MS/MS exclusions were performed using the AcquireX function. For the lipidomics analysis, chromatographic separation was achieved using a Waters Acquity UPLC CSH C18 (100 mm×2.1 mm i.d.; 1.7 μm) column injecting 2 μL. […] The column was equilibrated for 2 min at 15% B. The flow rate was set to 250 μL/min. The column temperature was maintained at 65° C. For the metabolomics analysis, chromatographic separation was achieved using a SeQuant ZIC-PHILIC (150 mm×2.1 mm i.d.; 5 μm) column injecting 2 μL. […]
# [1] = SU_MB002 cells treated with BAY (IC90)
# [2] = SU_MB002 cells, BAY (IC90) vs vehicle
structure (smiles),measurement,setting,value
CCn1c(CO)nn(-c2cc(O[C@@H](C)C(F)(F)F)c(C(=O)Nc3c(F)cccc3Cl)cc2F)c1=O [BAY2402234],"2-Aminoadipic acid normalized peak intensity, BAY average",[1],26487
same,"Argininosuccinic acid normalized peak intensity, BAY average",[1],114194
same,"Asparagine normalized peak intensity, BAY average",[1],172639.25
same,"Aspartic Acid normalized peak intensity, BAY average",[1],214198
same,"CDP normalized peak intensity, BAY average",[1],5476872.25
same,"CTP normalized peak intensity, BAY average",[1],810207.75
same,"Citramalate normalized peak intensity, BAY average",[1],4459.5
same,"Citrate normalized peak intensity, BAY average",[1],76953
same,"Creatine phosphate normalized peak intensity, BAY average",[1],619707.25
same,"Cystathionine normalized peak intensity, BAY average",[1],3636
same,"Dihydroorotic Acid normalized peak intensity, BAY average",[1],462202
same,"Gluconic acid normalized peak intensity, BAY average",[1],1081576.5
same,"Glutamate normalized peak intensity, BAY average",[1],26227101.8
same,"Glyceraldehyde-3-phosphate normalized peak intensity, BAY average",[1],78313.3333
same,"Hydroxyglutaric acid normalized peak intensity, BAY average",[1],37974496.3
same,"Inositol normalized peak intensity, BAY average",[1],40859409.5
same,"N-Acetyl glucosamine monophosphate normalized peak intensity, BAY average",[1],8697678.5
same,"N-Acetylglutamic Acid normalized peak intensity, BAY average",[1],189382
same,"N-Carbamoyl Aspartic Acid normalized peak intensity, BAY average",[1],31547.3333
same,"PE O-32:1 normalized peak intensity, BAY average",[1],2472183.74
same,"PE O-32:2 normalized peak intensity, BAY average",[1],11446617.4
same,"PE O-34:1 normalized peak intensity, BAY average",[1],3839410.03
same,"PE O-34:2 normalized peak intensity, BAY average",[1],92503648
same,"PE O-36:1 normalized peak intensity, BAY average",[1],531398.036
same,"PE O-36:2 normalized peak intensity, BAY average",[1],102597837
same,"PE O-36:4 normalized peak intensity, BAY average",[1],258977958
same,"PE O-38:4 normalized peak intensity, BAY average",[1],210123122
same,"PE O-40:2 normalized peak intensity, BAY average",[1],10612336
same,"PE O-40:4 normalized peak intensity, BAY average",[1],226507622
same,"PE O-42:3 normalized peak intensity, BAY average",[1],911901.571
same,"PE O-42:4 normalized peak intensity, BAY average",[1],13670542.5
same,"PE O-42:5 normalized peak intensity, BAY average",[1],14681375.2
same,"Proline normalized peak intensity, BAY average",[1],129729612
same,"Saccharopine normalized peak intensity, BAY average",[1],11126.3333
same,"Sarcosine normalized peak intensity, BAY average",[1],178498.5
same,"TG(42:0) normalized peak intensity, BAY average",[1],15967351.9
same,"TG(44:0) normalized peak intensity, BAY average",[1],64916660.2
same,"TG(44:1) normalized peak intensity, BAY average",[1],72494555.5
same,"TG(44:2) normalized peak intensity, BAY average",[1],23582680.7
same,"TG(46:3) normalized peak intensity, BAY average",[1],35191113.7
same,"TG(48:0) normalized peak intensity, BAY average",[1],234715455
same,"TG(48:1) normalized peak intensity, BAY average",[1],2421262.9
same,"TG(48:3) normalized peak intensity, BAY average",[1],16895583.2
same,"TG(48:4) normalized peak intensity, BAY average",[1],33300539.1
same,"TG(48:5) normalized peak intensity, BAY average",[1],2707280.56
same,"TG(50:0) normalized peak intensity, BAY average",[1],235218307
same,"TG(50:2) normalized peak intensity, BAY average",[1],1182402177
same,"TG(50:3) normalized peak intensity, BAY average",[1],595402718
same,"TG(52:1) normalized peak intensity, BAY average",[1],649526618
same,"TG(52:5) normalized peak intensity, BAY average",[1],9440406.47
same,"TG(54:1) normalized peak intensity, BAY average",[1],104051454
same,"TG(54:6) normalized peak intensity, BAY average",[1],36773026.8
same,"TG(56:7) normalized peak intensity, BAY average",[1],13481295.5
same,"UDP normalized peak intensity, BAY average",[1],964954.5
same,"UDP-Glucose normalized peak intensity, BAY average",[1],609888.333
same,"UTP normalized peak intensity, BAY average",[1],215065
same,"Uridine normalized peak intensity, BAY average",[1],26154.5
same,"Xanthosine normalized peak intensity, BAY average",[1],617698.75
same,"alpha-Ketoglutaric acid normalized peak intensity, BAY average",[1],112368
same,"dCTP normalized peak intensity, BAY average",[1],109835
same,"dTDP normalized peak intensity, BAY average",[1],13149248
same,2-Aminoadipic acid Log2 Fold Change: (BAY)/(DMSO),[2],−1.831
same,Argininosuccinic acid Log2 Fold Change: (BAY)/(DMSO),[2],0.9374
same,Asparagine Log2 Fold Change: (BAY)/(DMSO),[2],−2.552
same,Aspartic Acid Log2 Fold Change: (BAY)/(DMSO),[2],0.6679
same,CDP Log2 Fold Change: (BAY)/(DMSO),[2],−1.056
same,CTP Log2 Fold Change: (BAY)/(DMSO),[2],−1.688
same,Citramalate Log2 Fold Change: (BAY)/(DMSO),[2],−1.15
same,Citrate Log2 Fold Change: (BAY)/(DMSO),[2],−2.924
same,Creatine phosphate Log2 Fold Change: (BAY)/(DMSO),[2],−0.8039
same,Cystathionine Log2 Fold Change: (BAY)/(DMSO),[2],−1.709
same,Dihydroorotic Acid Log2 Fold Change: (BAY)/(DMSO),[2],−2.147
same,Gluconic acid Log2 Fold Change: (BAY)/(DMSO),[2],2.808
same,Glutamate Log2 Fold Change: (BAY)/(DMSO),[2],0.5525
same,Glyceraldehyde-3-phosphate Log2 Fold Change: (BAY)/(DMSO),[2],−1.224
same,Hydroxyglutaric acid Log2 Fold Change: (BAY)/(DMSO),[2],7.211
same,Inositol Log2 Fold Change: (BAY)/(DMSO),[2],−0.7576
same,N-Acetyl glucosamine monophosphate Log2 Fold Change: (BAY)/(DMSO),[2],−0.5317
same,N-Acetylglutamic Acid Log2 Fold Change: (BAY)/(DMSO),[2],1.218
same,N-Carbamoyl Aspartic Acid Log2 Fold Change: (BAY)/(DMSO),[2],−2.853
same,PE O-32:1 Log2 Fold Change: (BAY)/(DMSO),[2],1.371
same,PE O-32:2 Log2 Fold Change: (BAY)/(DMSO),[2],1.59
same,PE O-34:1 Log2 Fold Change: (BAY)/(DMSO),[2],0.7945
same,PE O-34:2 Log2 Fold Change: (BAY)/(DMSO),[2],1.319
same,PE O-36:1 Log2 Fold Change: (BAY)/(DMSO),[2],0.9815
same,PE O-36:2 Log2 Fold Change: (BAY)/(DMSO),[2],0.7435
same,PE O-36:4 Log2 Fold Change: (BAY)/(DMSO),[2],0.9655
same,PE O-38:4 Log2 Fold Change: (BAY)/(DMSO),[2],0.6388
same,PE O-40:2 Log2 Fold Change: (BAY)/(DMSO),[2],0.4723
same,PE O-40:4 Log2 Fold Change: (BAY)/(DMSO),[2],0.2968
same,PE O-42:3 Log2 Fold Change: (BAY)/(DMSO),[2],0.5216
same,PE O-42:4 Log2 Fold Change: (BAY)/(DMSO),[2],0.6964
same,PE O-42:5 Log2 Fold Change: (BAY)/(DMSO),[2],0.2828
same,Proline Log2 Fold Change: (BAY)/(DMSO),[2],11.27
same,Saccharopine Log2 Fold Change: (BAY)/(DMSO),[2],−1.712
same,Sarcosine Log2 Fold Change: (BAY)/(DMSO),[2],−0.4764
same,TG(42:0) Log2 Fold Change: (BAY)/(DMSO),[2],2.859
same,TG(44:0) Log2 Fold Change: (BAY)/(DMSO),[2],2.947
same,TG(44:1) Log2 Fold Change: (BAY)/(DMSO),[2],3.568
same,TG(44:2) Log2 Fold Change: (BAY)/(DMSO),[2],4.285
same,TG(46:3) Log2 Fold Change: (BAY)/(DMSO),[2],4.265
same,TG(48:0) Log2 Fold Change: (BAY)/(DMSO),[2],1.816
same,TG(48:1) Log2 Fold Change: (BAY)/(DMSO),[2],2.541
same,TG(48:3) Log2 Fold Change: (BAY)/(DMSO),[2],3.131
same,TG(48:4) Log2 Fold Change: (BAY)/(DMSO),[2],3.96
same,TG(48:5) Log2 Fold Change: (BAY)/(DMSO),[2],5.389
same,TG(50:0) Log2 Fold Change: (BAY)/(DMSO),[2],1.574
same,TG(50:2) Log2 Fold Change: (BAY)/(DMSO),[2],1.881
same,TG(50:3) Log2 Fold Change: (BAY)/(DMSO),[2],2.346
same,TG(52:1) Log2 Fold Change: (BAY)/(DMSO),[2],1.065
same,TG(52:5) Log2 Fold Change: (BAY)/(DMSO),[2],2.418
same,TG(54:1) Log2 Fold Change: (BAY)/(DMSO),[2],0.738
same,TG(54:6) Log2 Fold Change: (BAY)/(DMSO),[2],1.79
same,TG(56:7) Log2 Fold Change: (BAY)/(DMSO),[2],1.418
same,UDP Log2 Fold Change: (BAY)/(DMSO),[2],−3.019
same,UDP-Glucose Log2 Fold Change: (BAY)/(DMSO),[2],−2.77
same,UTP Log2 Fold Change: (BAY)/(DMSO),[2],−3.375
same,Uridine Log2 Fold Change: (BAY)/(DMSO),[2],−4.037
same,Xanthosine Log2 Fold Change: (BAY)/(DMSO),[2],3.486
same,alpha-Ketoglutaric acid Log2 Fold Change: (BAY)/(DMSO),[2],−1.687
same,dCTP Log2 Fold Change: (BAY)/(DMSO),[2],2.27
same,dTDP Log2 Fold Change: (BAY)/(DMSO),[2],1.896
